Reference: patent US6498125B2, “Pyridine ketones useful as herbicides” (Syngenta Participations AG, priority 1998, dated 2002)

Tests used:
[1] = system: Monocotyledonous and dicotyledonous test plants; assay: Example B2: post-emergence herbicidal action, 2 kg of AS/ha; format: in vivo; parameters: key: 1 = complete damage, 9 = no effect; conditions: 4- to 6-leaf stage, about 18 days; for post-emergence action rating, Avena: test plant Avena; for post-emergence action rating, Setaria: test plant Setaria; for post-emergence action rating, Sinapis: test plant Sinapis; for post-emergence action rating, Solanum: test plant Solanum; for post-emergence action rating, Stellaria: test plant Stellaria
Description: Monocotyledonous and dicotyledonous test plants are grown in plastic pots with standard soil in a greenhouse and, in the 4- to 6-leaf stage, are sprayed with an aqueous suspension of the test substances of the formula 1, prepared from a 25% wettable powder (Example F3, b) according to WO 97134485) or with an emulsion of the test substances of the formula I, prepared from a 25% emulsion concentrate (Example F1, c) according to WO 97/34485), corresponding to a dosage of 2 kg of AS/ha (500 l of water/ha). The test plants are then grown further under optimum conditions in a greenhouse. After a test period of about 18 days, the test is evaluated with a nine-level scale of rating (1=complete damage, 9=no effect). Ratings of 1 to 4 (in particular 1 to 3) mean good to very good herbicidal action. In this test, the compounds of the formula I show strong herbicidal action.

[2] = system: Monocotyledonous and dicotyledonous test plants; assay: Example B1: pre-emergence herbicidal action, 2 kg of AS/ha; format: in vivo; conditions: 3 weeks, scale 1-9; for pre-emergence action rating, Avena: test plant Avena; for pre-emergence action rating, Cyperus: test plant Cyperus; for pre-emergence action rating, Setaria: test plant Setaria; for pre-emergence action rating, Sinapis: test plant Sinapis; for pre-emergence action rating, Solanum: test plant Solanum; for pre-emergence action rating, Stellaria: test plant Stellaria
Description: Monocotyledonous and dicotyledonous test plants are sown in standard soil in plastic pots. Immediately after sowing, the test substances are sprayed on (500 l of water/ha) as an aqueous suspension (prepared from a 25% wettable powder (Example F3, b) according to WO 97/34485) or emulsion (prepared from a 25% emulsion concentrate (Example F1, c)), corresponding to a dosage of 2 kg of AS/ha. The test plants are then grown under optimum conditions in a greenhouse. After a test period of 3 weeks, the test is evaluated with a nine-level scale of ratings (1=complete damage, 9=no effect). Ratings of 1 to 4 (in particular 1 to 3) mean good to very good herbicidal action.

| Structure (SMILES) | post-emergence action rating, Avena ([1]; scale 1-9) | post-emergence action rating, Setaria ([1]; scale 1-9) | post-emergence action rating, Sinapis ([1]; scale 1-9) | post-emergence action rating, Solanum ([1]; scale 1-9) | post-emergence action rating, Stellaria ([1]; scale 1-9) | pre-emergence action rating, Avena [2] | pre-emergence action rating, Cyperus [2] | pre-emergence action rating, Setaria [2] | pre-emergence action rating, Sinapis [2] | pre-emergence action rating, Solanum [2] | pre-emergence action rating, Stellaria [2] | post-emergence action rating, Avena ([1]; scale 1-9, listed as 1.010) | post-emergence action rating, Stellaria ([1]; scale 1-9, listed as 1.010) |
| --- | --- | --- | --- | --- | --- | --- | --- | --- | --- | --- | --- | --- | --- |
| O=C(C1=C(O)C2CCC(C2)C1=O)c1ccc(C(F)(F)F)nc1 (stereo not shown) [Compound 1.001] | 3 | 2 | 1 | 2 | 2 |  |  |  |  |  |  |  |  |
| O=C(C1=C(O)C2CCC(C2)C1=O)c1ccc(C(F)(F)F)nc1 (stereo not shown) [Compound 1.01] |  | 2 | 1 | 2 |  | 2 | 1 | 1 | 1 | 1 | 2 | 2 | 4 |
| Cc1nc(C(F)(F)F)ccc1C(=O)C1=C(OC(=O)C(C)(C)C)C2CCC(C2)C1=O (stereo not shown) [Compound 1.4] | 2 | 2 | 1 | 2 | 2 | 2 | 1 | 1 | 2 | 1 | 2 |  |  |
| O=C(C1=C(O)C2CCC(C2)C1=O)c1ccc(C(F)(F)F)nc1C(F)F (stereo not shown) [Compound 1.005] | 2 | 2 | 1 | 2 | 2 | 4 | 1 | 1 | 1 | 1 | 1 |  |  |
| Cc1c(C(=O)C2=C(O)C3CCC(C3)C2=O)ccc(C(F)(F)F)[n+]1[O-] (stereo not shown) [Compound 1.06] | 2 | 1 | 1 | 1 | 2 | 2 | 1 | 1 | 2 | 1 | 1 |  |  |
| O=C(C1=C(O)C2CCC(C2)C1=O)c1ccc(C(F)(F)F)nc1C(F)(F)F (stereo not shown) [Compound 1.008] | 2 | 2 | 1 | 2 | 2 |  |  |  |  |  |  |  |  |
| Cc1nc(C(F)(F)F)ccc1C(=O)C1=C(O)C2CCC(C2)C1=O (stereo not shown) [Compound 1.009, 4-hydroxy-3-(2-methyl-6-trifluoromethylpyridine-3-carbonyl)bicyclo[3.2.1]oct-3-en-2-one] | 1 | 1 | 1 | 1 | 2 | 2 | 1 | 1 | 2 | 1 | 2 |  |  |
| CC(C)c1nc(C(F)(F)F)ccc1C(=O)C1=C(O)C2CCC(C2)C1=O (stereo not shown) [Compound 1.011] | 2 | 2 | 2 | 2 | 2 | 2 | 1 | 1 | 1 | 1 | 1 |  |  |
| CCCc1nc(C(F)(F)F)ccc1C(=O)C1=C(O)C2CCC(C2)C1=O (stereo not shown) [Compound 1.012] | 3 | 2 | 1 | 2 | 2 |  |  |  |  |  |  |  |  |
| COCc1nc(C(F)(F)F)ccc1C(=O)C1=C(O)C2CCC(C2)C1=O (stereo not shown) [Compound 1.021] | 2 | 4 | 1 | 2 | 2 | 4 | 2 | 1 | 1 | 1 | 3 |  |  |
| COCCc1nc(C(F)(F)F)ccc1C(=O)C1=C(O)C2CCC(C2)C1=O (stereo not shown) [Compound 1.023] | 2 | 2 | 1 | 2 | 2 | 2 | 2 | 2 | 1 | 1 | 2 |  |  |
| CS(=O)(=O)Cc1nc(C(F)(F)F)ccc1C(=O)C1=C(O)C2CCC(C2)C1=O (stereo not shown) [Compound 1.026] | 3 | 1 | 1 | 1 | 2 |  |  |  |  |  |  |  |  |
| CCN(CC)C(=O)OC1=C(C(=O)c2ccc(C(F)(F)F)nc2C)C(=O)C2CCC1C2 (stereo not shown) [Compound 1.41] | 1 | 1 | 1 | 1 | 1 | 2 | 1 | 1 | 1 | 1 | 1 |  |  |
| O=C(C1=C(O)C2CCC(C2)C1=O)c1ccc(C(F)(F)F)nc1C1CC1 (stereo not shown) [Compound 1.042] | 2 | 2 | 1 | 2 | 2 | 4 | 2 | 2 | 1 | 1 | 4 |  |  |
| COc1nc(C(F)(F)F)ccc1C(=O)C1=C(O)C2CCC(C2)C1=O (stereo not shown) [Compound 1.043] | 2 | 2 | 1 | 2 | 2 | 4 | 2 | 1 | 2 | 1 | 2 |  |  |
| C#CCOc1nc(C(F)(F)F)ccc1C(=O)C1=C(O)C2CCC(C2)C1=O (stereo not shown) [Compound 1.048] | 2 | 1 | 1 | 1 | 2 |  |  |  |  |  |  |  |  |
| Cc1cc(C(F)(F)F)ncc1C(=O)C1=C(O)C2CCC(C2)C1=O (stereo not shown) [Compound 1.362] | 3 | 2 | 1 | 2 | 2 |  |  |  |  |  |  |  |  |
| CCc1nc(C(F)(F)F)ccc1C(=O)C1=C(O)C(C)(C)ON(C)C1=O [Compound 4.01] | 3 | 3 | 2 | 2 | 2 |  |  |  |  |  |  |  |  |
| CCC1=CC(C)(C)C(O)=C(C(=O)c2ccc(C(F)(F)F)nc2C)C1=O [Compound 5.081] | 3 | 2 | 1 | 1 | 2 |  |  |  |  |  |  |  |  |
| Cc1nc(C(F)(F)F)ccc1C(=O)C1=C(O)C(C)(C)C=CC1=O [Compound 5.085] | 3 | 2 | 1 | 2 | 2 |  |  |  |  |  |  |  |  |
